The source of these data is ChEMBL document CHEMBL1128018, “Structure-activity relationships of the non-peptidyl growth hormone secretagogue L-692,429” (1994).

The species entered for test [1] is Rattus norvegicus. In words: Growth hormone release was determined in rat pituitary cells at 1 uM; A - weakly active. Particulars: Pituitary gland cell. It is filed as functional, cell-based.
The species named for test [2] is Rattus norvegicus. The test can be described thus: Growth hormone release from rat pituitary cells. In kind it is functional. The conditions noted are these: Pituitary gland cell, read-out: ED50 (the source's name).

For `C[C@H](CNC(C)(C)CC(=O)N[C@@H]1CCc2ccccc2N(Cc2ccc(-c3ccccc3-c3nn[nH]n3)cc2)C1=O)OCc1ccccc1`, the “Growth hormone release activity call at 1 uM” value in the test listed under Rattus norvegicus [1] was “Weak activity”.
Still for that read-out and setting: the entry for `CC(C)(CC(=O)N[C@@H]1CCc2ccccc2N(Cc2ccc(-c3ccccc3-c3nn[nH]n3)cc2)C1=O)NCCOCc1ccccc1` is “Weak activity”.
On to `CC(C)(CC(=O)N[C@@H]1CCc2ccccc2N(Cc2ccc(-c3ccccc3-c3nn[nH]n3)cc2)C1=O)NCCO`, for which the EC50 in the test listed under Rattus norvegicus [2] was determined as 30 nM.
On the same count and under the same terms, the figure for `C[C@@H](O)CCNC(C)(C)C(=O)N[C@@H]1CCc2ccccc2N(Cc2ccc(-c3ccccc3-c3nn[nH]n3)cc2)C1=O` is 100 nM; for `C[C@@H](O)CCNC(C)(C)CC(=O)N[C@@H]1CCc2ccccc2N(Cc2ccc(-c3ccccc3-c3nn[nH]n3)cc2)C1=O` it is 10 nM.
Same read-out and setting: the figure for `CC(C)[C@H](O)CNC(C)(C)CC(=O)N[C@@H]1CCc2ccccc2N(Cc2ccc(-c3ccccc3-c3nn[nH]n3)cc2)C1=O` is 1000 nM.
Still for that read-out and setting: the figure for `CC(C)(CC(=O)N[C@@H]1CCc2ccccc2N(Cc2ccc(-c3ccccc3-c3nn[nH]n3)cc2)C1=O)NC[C@H](O)CO` is 10 nM.
As to `CCCNC(C)(C)CC(=O)N[C@@H]1CCc2ccccc2N(Cc2ccc(-c3ccccc3-c3nn[nH]n3)cc2)C1=O`, the EC50 in the test filed under Rattus norvegicus [2] came to 50 nM.
Same read-out and setting: under `CC(C)(CC(=O)N[C@@H]1CCc2ccccc2N(Cc2ccc(-c3ccccc3-c3nn[nH]n3)cc2)C1=O)NC[C@H](O)c1ccccc1` stands 1000 nM.
For `C[C@H](O)CCNC(C)(C)C(=O)N[C@@H]1CCc2ccccc2N(Cc2ccc(-c3ccccc3-c3nn[nH]n3)cc2)C1=O`, the EC50 in the test listed under Rattus norvegicus [2] is 50 nM.
On the same count and under the same terms, the figure for `CC(=O)O[C@@H](C)CNC(C)(C)CC(=O)N[C@@H]1CCc2ccccc2N(Cc2ccc(-c3ccccc3-c3nn[nH]n3)cc2)C1=O` is 200 nM; for `CCOC(=O)CNC(C)(C)CC(=O)N[C@@H]1CCc2ccccc2N(Cc2ccc(-c3ccccc3-c3nn[nH]n3)cc2)C1=O` it is 56 nM.
In the case of `C[C@@H](O)CNC(C)(C)CC(=O)N[C@@H]1CCc2ccccc2N(Cc2ccc(-c3ccccc3-c3nn[nH]n3)cc2)C1=O` [L-692585], in the test listed under Rattus norvegicus [2], the EC50 was determined as 3 nM.
Regarding `CC(C)(CC(=O)N[C@@H]1CCc2ccccc2N(Cc2ccc(-c3ccccc3-c3nn[nH]n3)cc2)C1=O)NC[C@H](O)[C@@H](O)CO`, the EC50 in the test listed under Rattus norvegicus [2] was 40 nM.
Still for that read-out and setting: the figure for `CC(C)(N)C(=O)N[C@@H]1CCc2ccccc2N(Cc2ccc(-c3ccccc3-c3nn[nH]n3)cc2)C1=O` is 30 nM.
For the molecule `C[C@H](O)CCNC(C)(C)CC(=O)N[C@@H]1CCc2ccccc2N(Cc2ccc(-c3ccccc3-c3nn[nH]n3)cc2)C1=O`, in the test listed under Rattus norvegicus [1], the “Growth hormone release activity call at 1 uM” value was “Weak activity”.
Turning to `C[C@H](O)CNC(C)(C)C(=O)N[C@@H]1CCc2ccccc2N(Cc2ccc(-c3ccccc3-c3nn[nH]n3)cc2)C1=O`, the EC50 in the test filed under Rattus norvegicus [2] was found to be 700 nM.
Regarding `CC(C)(O)CNC(C)(C)CC(=O)N[C@@H]1CCc2ccccc2N(Cc2ccc(-c3ccccc3-c3nn[nH]n3)cc2)C1=O`, the EC50 in the test listed under Rattus norvegicus [2] is 10 nM.
For the molecule `CO[C@H](C)CNC(C)(C)CC(=O)N[C@@H]1CCc2ccccc2N(Cc2ccc(-c3ccccc3-c3nn[nH]n3)cc2)C1=O`, the EC50 in the test filed under Rattus norvegicus [2] worked out at 20 nM.
Still for that read-out and setting: under `CC(C)[C@@H](O)CNC(C)(C)CC(=O)N[C@@H]1CCc2ccccc2N(Cc2ccc(-c3ccccc3-c3nn[nH]n3)cc2)C1=O` stands 200 nM; under `C[C@@H](F)CNC(C)(C)CC(=O)N[C@@H]1CCc2ccccc2N(Cc2ccc(-c3ccccc3-c3nn[nH]n3)cc2)C1=O`, 90 nM.
The same measure, in the same setting: the figure for `C[C@@H](O)CNC(C)(C)C(=O)N[C@@H]1CCc2ccccc2N(Cc2ccc(-c3ccccc3-c3nn[nH]n3)cc2)C1=O` is 300 nM.
Same read-out and setting: the figure for `C[C@H](O)CNC(C)(C)CC(=O)N[C@@H]1CCc2ccccc2N(Cc2ccc(-c3ccccc3-c3nn[nH]n3)cc2)C1=O` is 7 nM; for `CC(C)(N)CC(=O)N[C@@H]1CCc2ccccc2N(Cc2ccc(-c3ccccc3-c3nn[nH]n3)cc2)C1=O` it is 60 nM.
Consider `CC(C)(CC(=O)N[C@@H]1CCc2ccccc2N(Cc2ccc(-c3ccccc3-c3nn[nH]n3)cc2)C1=O)NCC(=O)O`, for which the “Growth hormone release activity call at 1 uM” value in the test listed under Rattus norvegicus [1] was “Weak activity”.
